Test results: US7642221B2, “Substituted thien-3-yl-sulphonylamino(thio)carbonyl-triazoline(ethi)ones” (Bayer Aktiengesellschaft, priority 1999, dated 2010)

Columns and labels:
Type in all cases: in vivo
Xanthium [1] = experiment: Pre-emergence test/greenhouse; settings: greenhouse, 250 g of ai/ha, rated after three weeks
Protocol: (§1) • Solvent: 5 parts by weight of acetone • Emulsifier: 1 part by weight of alkylaryl polyglycol ether
(§2) To produce a suitable preparation of active compound, 1 part by weight of active compound is mixed with the stated amount of solvent, the stated amount of emulsifier is added and the concentrate is diluted with water to the desired concentration.
(§3) Seeds of the test plants are sown in normal soil. After about 24 hours, the soil is sprayed with the preparation of active compound such that the particular amount of active compound desired is applied per unit area. The concentration of the spray liquor is chosen so that the particular amount of active compound desired is applied in 1000 liters of water per hectare.
(§4) After three weeks, the degree of damage to the plants is rated in % damage in comparison to the development of the untreated control.
(§5) The figure denote: • 0%=no effect (like untreated control) • 100%=total destruction

Setaria [2] = experiment: Pre-emergence test/greenhouse; settings: greenhouse, rated after three weeks
Protocol: as §1, §2, §3, §4, §5

Cyperus = experiment: Pre-emergence test/greenhouse; settings: greenhouse, rated after three weeks
Protocol: as §1, §2, §3, §4, §5

Amaranthus [3] = experiment: Pre-emergence test/greenhouse; settings: greenhouse, rated after three weeks
Protocol: as §1, §2, §3, §4, §5

Alopecurus [4] = experiment: Pre-emergence test/greenhouse; settings: greenhouse, rated after three weeks
Protocol: as §1, §2, §3, §4, §5

Sinapis [5] = experiment: Pre-emergence test/greenhouse; settings: greenhouse, 250 g of ai/ha, rated after three weeks
Protocol: as §1, §2, §3, §4, §5

Abutilon [6] = experiment: Pre-emergence test/greenhouse; settings: greenhouse, 250 g of ai/ha, rated after three weeks
Protocol: as §1, §2, §3, §4, §5

Galium = experiment: Pre-emergence test/greenhouse; settings: greenhouse, 250 g of ai/ha, rated after three weeks
Protocol: as §1, §2, §3, §4, §5

weeds [7] = experiment: Post-emergence test, activity against weeds
Protocol: as §1
(§6) To produce a suitable preparation of active compound, one part by weight of active compound is mixed with the stated amount of solvent, the stated amount of emulsifier is added and the concentrate is diluted with water to the desired concentration.
(§7) Test plants which have a height of 5-15 cm are sprayed with the preparation of active compound such that the particular amounts of active compound desired are applied per unit area. The concentration of the spray liquor is chosen so that the particular amounts of active compound desired are applied in 1000 l of water/ha.
as §4
(§8) The figures denote: • 0%=no effect (like untreated control) • 100%=total destruction

weeds [8] = experiment: Pre-emergence test, activity against weeds
Protocol: as §1, §2, §3, §4, §5

Wheat [9] = experiment: Post-emergence test/greenhouse; settings: greenhouse, rated after three weeks
Protocol: as §1, §6, §7, §4, §8

Veronica [10] = experiment: Post-emergence test/greenhouse; settings: greenhouse, 2 g of ai/ha, rated after three weeks
Protocol: as §1, §6, §7, §4, §8

Barley = experiment: Post-emergence test/greenhouse; settings: greenhouse, 2 g of ai/ha, rated after three weeks
Protocol: as §1, §6, §7, §4, §8

Viola [11] = experiment: Post-emergence test/greenhouse; settings: greenhouse, 2 g of ai/ha, rated after three weeks
Protocol: as §1, §6, §7, §4, §8

Chenopodium [12] = experiment: Post-emergence test/greenhouse; settings: greenhouse, 2 g of ai/ha, rated after three weeks
Protocol: as §1, §6, §7, §4, §8

Echinochloa [13] = experiment: Post-emergence test/greenhouse; settings: greenhouse, 2 g of ai/ha, rated after three weeks
Protocol: as §1, §6, §7, §4, §8

Amaranthus [14] = experiment: Post-emergence test/greenhouse; settings: greenhouse, rated after three weeks
Protocol: as §1, §6, §7, §4, §8

Stellaria [15] = experiment: Post-emergence test/greenhouse; settings: greenhouse, rated after three weeks
Protocol: as §1, §6, §7, §4, §8

Maize [16] = experiment: Post-emergence test/greenhouse; settings: greenhouse, 15 g of ai/ha, rated after three weeks
Protocol: as §1, §6, §7, §4, §8

Setaria [17] = experiment: Post-emergence test/greenhouse; settings: greenhouse, rated after three weeks
Protocol: as §1, §6, §7, §4, §8

Abutilon [18] = experiment: Post-emergence test/greenhouse; settings: greenhouse, rated after three weeks
Protocol: as §1, §6, §7, §4, §8

Solanum [19] = experiment: Post-emergence test/greenhouse; settings: greenhouse, rated after three weeks
Protocol: as §1, §6, §7, §4, §8

Maize [20] = experiment: Pre-emergence test/greenhouse; settings: greenhouse, 60 g of ai/ha, rated after three weeks
Protocol: as §1, §2, §3, §4, §5

Chenopodium [21] = experiment: Pre-emergence test/greenhouse; settings: greenhouse, 60 g of ai/ha, rated after three weeks
Protocol: as §1, §2, §3, §4, §5

Matricaria [22] = experiment: Pre-emergence test/greenhouse; settings: greenhouse, 60 g of ai/ha, rated after three weeks
Protocol: as §1, §2, §3, §4, §5

Solanum [23] = experiment: Pre-emergence test/greenhouse; settings: greenhouse, rated after three weeks
Protocol: as §1, §2, §3, §4, §5

Digitaria = experiment: Pre-emergence test/greenhouse; settings: greenhouse, 60 g of ai/ha, rated after three weeks
Protocol: as §1, §2, §3, §4, §5

Xanthium [24] = experiment: Post-emergence test/greenhouse; settings: greenhouse, 250 g of ai/ha, rated after three weeks
Protocol: as §1, §6, §7, §4, §8

Alopecurus [25] = experiment: Post-emergence test/greenhouse; settings: greenhouse, 250 g of ai/ha, rated after three weeks
Protocol: as §1, §6, §7, §4, §8

Avenafatua = experiment: Post-emergence test/greenhouse; settings: greenhouse, 250 g of ai/ha, rated after three weeks
Protocol: as §1, §6, §7, §4, §8

Sinapis [26] = experiment: Post-emergence test/greenhouse; settings: greenhouse, 250 g of ai/ha, rated after three weeks
Protocol: as §1, §6, §7, §4, §8

Wheat [27] = experiment: Pre-emergence test/greenhouse; settings: greenhouse, 125 g of ai/ha, rated after three weeks
Protocol: as §1, §2, §3, §4, §5

Veronica [28] = experiment: Pre-emergence test/greenhouse; settings: greenhouse, 125 g of ai/ha, rated after three weeks
Protocol: as §1, §2, §3, §4, §5

Viola [29] = experiment: Pre-emergence test/greenhouse; settings: greenhouse, 125 g of ai/ha, rated after three weeks
Protocol: as §1, §2, §3, §4, §5

Echinochloa [30] = experiment: Pre-emergence test/greenhouse; settings: greenhouse, 125 g of ai/ha, rated after three weeks
Protocol: as §1, §2, §3, §4, §5

Bromus = experiment: Pre-emergence test/greenhouse; settings: greenhouse, 125 g of ai/ha, rated after three weeks
Protocol: as §1, §2, §3, §4, §5

Stellaria [31] = experiment: Pre-emergence test/greenhouse; settings: greenhouse, 125 g of ai/ha, rated after three weeks
Protocol: as §1, §2, §3, §4, §5

Ipomoea = experiment: Post-emergence test/greenhouse; settings: greenhouse, 8 g of ai/ha, rated after three weeks
Protocol: as §1, §6, §7, §4, §8

Matricaria [32] = experiment: Post-emergence test/greenhouse; settings: greenhouse, 8 g of ai/ha, rated after three weeks
Protocol: as §1, §6, §7, §4, §8

COC(=O)c1csc(C)c1S(=O)(=O)NC(=O)n1nc(OC)n(C2CC2)c1=O [Example 5]
degree of damage to the plants, Xanthium (Xanthium [1]): 99% | degree of damage to the plants, Setaria (Setaria [2]; 250 g of ai/ha): 100% | degree of damage to the plants, Cyperus (Cyperus; 250 g of ai/ha): 100% | degree of damage to the plants, Amaranthus (Amaranthus [3]; 250 g of ai/ha): 100% | degree of damage to the plants, Alopecurus (Alopecurus [4]; 250 g of ai/ha): 99% | degree of damage to the plants, Sinapis (Sinapis [5]): 95% | degree of damage to the plants, Abutilon (Abutilon [6]): 95% | degree of damage to the plants, Galium (Galium): 95% | activity against weeds (weeds [7]): very strong activity | activity against weeds (weeds [8]): very strong activity | degree of damage to the plants, Wheat (Wheat [9]; 2 g of ai/ha): 10% | degree of damage to the plants, Veronica (Veronica [10]): 90% | degree of damage to the plants, Barley (Barley): 10% | degree of damage to the plants, Viola (Viola [11]): 90% | degree of damage to the plants, Chenopodium (Chenopodium [12]): 95% | degree of damage to the plants, Echinochloa (Echinochloa [13]): 95% | degree of damage to the plants, Amaranthus (Amaranthus [14]; 2 g of ai/ha): 99% | degree of damage to the plants, Stellaria (Stellaria [15]; 2 g of ai/ha): 100%

COC(=O)c1csc(C)c1S(=O)(=O)NC(=O)n1nc(C)n(C)c1=O [Example 10]
degree of damage to the plants, Xanthium (Xanthium [1]): 90% | degree of damage to the plants, Setaria (Setaria [2]; 250 g of ai/ha): 100% | degree of damage to the plants, Cyperus (Cyperus; 250 g of ai/ha): 95% | degree of damage to the plants, Amaranthus (Amaranthus [3]; 250 g of ai/ha): 100% | degree of damage to the plants, Alopecurus (Alopecurus [4]; 250 g of ai/ha): 95% | degree of damage to the plants, Sinapis (Sinapis [5]): 100% | degree of damage to the plants, Abutilon (Abutilon [6]): 95% | degree of damage to the plants, Galium (Galium): 95% | activity against weeds (weeds [7]): very strong activity | activity against weeds (weeds [8]): very strong activity | degree of damage to the plants, Wheat (Wheat [9]; 15 g of ai/ha): 10% | degree of damage to the plants, Maize (Maize [16]): 10% | degree of damage to the plants, Setaria (Setaria [17]; 15 g of ai/ha): 95% | degree of damage to the plants, Amaranthus (Amaranthus [14]; 15 g of ai/ha): 90% | degree of damage to the plants, Abutilon (Abutilon [18]; 15 g of ai/ha): 90% | degree of damage to the plants, Stellaria (Stellaria [15]; 15 g of ai/ha): 95% | degree of damage to the plants, Solanum (Solanum [19]; 15 g of ai/ha): 90%

CCc1nn(C(=O)NS(=O)(=O)c2c(C(=O)OC)csc2C)c(=O)n1C [Example 11]
degree of damage to the plants, Maize (Maize [20]): 10% | degree of damage to the plants, Chenopodium (Chenopodium [21]): 100% | degree of damage to the plants, Setaria (Setaria [2]; 60 g of ai/ha): 100% | degree of damage to the plants, Amaranthus (Amaranthus [3]; 60 g of ai/ha): 100% | degree of damage to the plants, Alopecurus (Alopecurus [4]; 60 g of ai/ha): 100% | degree of damage to the plants, Matricaria (Matricaria [22]): 100% | degree of damage to the plants, Solanum (Solanum [23]; 60 g of ai/ha): 100% | degree of damage to the plants, Digitaria (Digitaria): 100% | activity against weeds (weeds [7]): very strong activity | activity against weeds (weeds [8]): very strong activity | degree of damage to the plants, Xanthium (Xanthium [24]): 100% | degree of damage to the plants, Setaria (Setaria [17]; 250 g of ai/ha): 100% | degree of damage to the plants, Amaranthus (Amaranthus [14]; 250 g of ai/ha): 100% | degree of damage to the plants, Alopecurus (Alopecurus [25]): 100% | degree of damage to the plants, Avenafatua (Avenafatua): 100% | degree of damage to the plants, Sinapis (Sinapis [26]): 100% | degree of damage to the plants, Abutilon (Abutilon [18]; 250 g of ai/ha): 100%

COC(=O)c1csc(C)c1S(=O)(=O)NC(=O)n1nc(OC(C)C)n(C)c1=O [Example 4]
degree of damage to the plants, Wheat (Wheat [27]): 20% | degree of damage to the plants, Veronica (Veronica [28]): 100% | degree of damage to the plants, Viola (Viola [29]): 100% | degree of damage to the plants, Echinochloa (Echinochloa [30]): 100% | degree of damage to the plants, Cyperus (Cyperus; 125 g of ai/ha): 100% | degree of damage to the plants, Bromus (Bromus): 100% | degree of damage to the plants, Stellaria (Stellaria [31]): 100% | degree of damage to the plants, Solanum (Solanum [23]; 125 g of ai/ha): 100% | activity against weeds (weeds [7]): very strong activity | activity against weeds (weeds [8]): very strong activity | degree of damage to the plants, Ipomoea (Ipomoea): 95% | degree of damage to the plants, Wheat (Wheat [9]; 8 g of ai/ha): 10% | degree of damage to the plants, Amaranthus (Amaranthus [14]; 8 g of ai/ha): 95% | degree of damage to the plants, Matricaria (Matricaria [32]): 90% | degree of damage to the plants, Abutilon (Abutilon [18]; 8 g of ai/ha): 95% | degree of damage to the plants, Stellaria (Stellaria [15]; 8 g of ai/ha): 95% | degree of damage to the plants, Solanum (Solanum [19]; 8 g of ai/ha): 95%
